Values of other authors in article PMC2992174 (Journal of nuclear medicine : official publication, Society …, 2010).
Positions of bridges follow the written chain, without caps; N, C: chain ends. No end group written: not given here.

Experiments:
IPA = conditions: ^111In-labeled peptide, IPA in vivo

Substance: CGGRLGPFC-NH2 (disulfide 1-9)
- background activity (IPA): 0.14 ± 0.02 %ID/g
- target uptake (IPA): 0.37 ± 0.06 %ID/g

Substance: Fe-TAFC
- uptake by Candida albicans (Candida albicans): inefficient
